*1 amine or outer side, *2 acyl side, *3 side chain or, on linkers, in order; H or OH if unused. Where a SMILES comes first, the peptide text is derived from it. [ ]: non-standard residue; d: D form. The star is where a group is joined. ξ: configuration not given here. ξLys(Nα-CO-ξAad) = O=C(O)CCCC(NC(=O)NC(CCCCN*)C(=O)O)C(=O)O; Butanoyl(4-(4-NO2Ph)) = O=C(CCCc1ccc([N+](=O)[O-])cc1)*; DOTA = O=C(O)CN1CCN(CC(=O)O)CCN(CC(=O)*)CCN(CC(=O)O)CC1; ξAla(9-anthryl) = NC(Cc1c2ccccc2cc2ccccc12)C(=O)O; X1 = O=C(C1CCC(CN[*:1])CC1)[*:2]; ξK = NCCCCC(N)C(=O)O
Tested on: NRG-mice bearing LNCaP tumors
Assay: Biodistribution (and PET/SPECT imaging) in NRG-mice bearing LNCaP tumors
Format: in vivo
Conditions: Avg
Method: LNCaP cell line was obtained from ATCC (LNCaP clone FGC, CRL-1740). It was established from a metastatic site of left supraclavicular lymph node of human prostatic adenocarcinoma. Cells were cultured in PRMI 1640 medium supplemented with 10% FBS, penicillin (100 U/mL) and streptomycin (100 μg/mL) at 37° C. in a humidified incubator containing 5% CO2. Cells grown to 80-90% confluence were then washed with sterile phosphate-buffered saline (1×PBS pH 7.4) and trypsinization. The collected cells number was counted with a Hausser Scientific (Horsham, PA) Hemacytometer. Approximately 10 million LNCaP cells were inoculated into the left dorsal flank of immunocomprised NRG mice. The tumours were allowed to grow for 4-6 weeks and used for imaging and biodistribution studies when a volume of 200-600 mm^3 was reached.
PET imaging experiments were conducted using Siemens Inveon micro PET/CT scanner. SPECT imaging experiments were conducted using an MILabs micro SPECT/CT scanner. Each tumor bearing mouse was injected 4-6 MBq of ^68Ga or 18.5 MBq of ^177Lu labeled tracer through the tail vein under anesthesia (2% isoflurane in oxygen). The mice were allowed to recover and roam freely in their cage. At pre-defined time point, the mice were sedated again with 2% isoflurane in oxygen inhalation and positioned in the scanner. A 10-min CT scan was conducted first for localization and attenuation correction after segmentation for reconstructing the PET or SPECT images. Then, a 10-min static PET imaging or a one hour (30 min×2 frames) of static SPECT scan was performed to determined uptake in tumor and other organs. The mice were kept warm by a heating pad during acquisition.
For biodistribution studies, the mice were injected with the radiotracer as described above. The mice were anesthetized with 2% isoflurane inhalation, and euthanized by CO2 inhalation. Blood was withdrawn immediately from the heart, and the organs/tissues of interest were collected. The collected organs/tissues were weighed and counted using a Perkin Elmer (Waltham, MA) Wizard2 2480 gamma counter. The uptake in each organ/tissue was normalized to the injected dose (radioactivity) using a standard curve, and expressed as the percentage of the injected dose per gram of tissue (% ID/g).

Biodistribution: Adrenal gland (3 h p.i.): 3.61 % ID/g | Biodistribution: Blood (3 h p.i.): 9.83 % ID/g | Biodistribution: Bone (3 h p.i.): 1.24 % ID/g | Biodistribution: Brain (3 h p.i.): 0.19 % ID/g | Biodistribution: Fat (3 h p.i.): 1.96 % ID/g | Biodistribution: Heart (3 h p.i.): 2.27 % ID/g | Biodistribution: Intestine (3 h p.i.): 1.02 % ID/g | Biodistribution: LNCaP tumor (3 h p.i.): 23.63 % ID/g | Biodistribution: Lacrimal gland (3 h p.i.): 0.92 % ID/g | Biodistribution: Liver (3 h p.i.): 1.90 % ID/g | Biodistribution: Lungs (3 h p.i.): 4.93 % ID/g | Biodistribution: Muscle (3 h p.i.): 0.80 % ID/g | Biodistribution: Pancreas (3 h p.i.): 1.14 % ID/g | Biodistribution: Salivary gland (3 h p.i.): 3.37 % ID/g | Biodistribution: Seminal gland (3 h p.i.): 2.26 % ID/g | Biodistribution: Spleen (3 h p.i.): 1.15 % ID/g | Biodistribution: Stomach (3 h p.i.): 0.47 % ID/g | Biodistribution: Testes (3 h p.i.): 2.73 % ID/g | Biodistribution: Thyroid (3 h p.i.): 1.72 % ID/g | Biodistribution: Urine (3 h p.i.): 142.80 % ID/g | Biodistribution: kidney (3 h p.i.): 14.29 % ID/g | Biodistribution: Adrenal gland (24 h p.i.): 0.59 % ID/g | Biodistribution: Blood (24 h p.i.): 0.28 % ID/g | Biodistribution: Bone (24 h p.i.): 0.30 % ID/g | Biodistribution: Brain (24 h p.i.): 0.03 % ID/g | Biodistribution: Fat (24 h p.i.): 0.13 % ID/g | Biodistribution: Heart (24 h p.i.): 0.25 % ID/g | Biodistribution: Intestine (24 h p.i.): 0.15 % ID/g | Biodistribution: LNCaP tumor (24 h p.i.): 42.31 % ID/g | Biodistribution: Lacrimal gland (24 h p.i.): 0.32 % ID/g | Biodistribution: Liver (24 h p.i.): 0.68 % ID/g | Biodistribution: Lungs (24 h p.i.): 0.58 % ID/g | Biodistribution: Muscle (24 h p.i.): 0.06 % ID/g | Biodistribution: Pancreas (24 h p.i.): 0.09 % ID/g | Biodistribution: Salivary gland (24 h p.i.): 0.35 % ID/g | Biodistribution: Seminal gland (24 h p.i.): 0.15 % ID/g | Biodistribution: Spleen (24 h p.i.): 0.50 % ID/g | Biodistribution: Stomach (24 h p.i.): 0.20 % ID/g | Biodistribution: Testes (24 h p.i.): 0.38 % ID/g | Biodistribution: Thyroid (24 h p.i.): 0.33 % ID/g | Biodistribution: Urine (24 h p.i.): 4.30 % ID/g | Biodistribution: kidney (24 h p.i.): 6.87 % ID/g | Biodistribution: Adrenal gland (72 h p.i.): 24.11 % ID/g | Biodistribution: Blood (72 h p.i.): 0.01 % ID/g | Biodistribution: Bone (72 h p.i.): 0.34 % ID/g | Biodistribution: Brain (72 h p.i.): 0.02 % ID/g | Biodistribution: Fat (72 h p.i.): 0.40 % ID/g | Biodistribution: Heart (72 h p.i.): 0.16 % ID/g | Biodistribution: Intestine (72 h p.i.): 0.06 % ID/g | Biodistribution: LNCaP tumor (72 h p.i.): 54.12 % ID/g | Biodistribution: Lacrimal gland (72 h p.i.): 1.39 % ID/g | Biodistribution: Liver (72 h p.i.): 0.51 % ID/g | Biodistribution: Lungs (72 h p.i.): 0.19 % ID/g | Biodistribution: Muscle (72 h p.i.): 0.04 % ID/g | Biodistribution: Pancreas (72 h p.i.): 0.09 % ID/g | Biodistribution: Salivary gland (72 h p.i.): 0.33 % ID/g | Biodistribution: Seminal gland (72 h p.i.): 0.03 % ID/g | Biodistribution: Spleen (72 h p.i.): 0.93 % ID/g | Biodistribution: Stomach (72 h p.i.): 0.06 % ID/g | Biodistribution: Testes (72 h p.i.): 0.33 % ID/g | Biodistribution: Thyroid (72 h p.i.): 0.22 % ID/g | Biodistribution: Urine (72 h p.i.): 1.33 % ID/g | Biodistribution: kidney (72 h p.i.): 3.62 % ID/g | Biodistribution: Adrenal gland (144 h p.i.): 0.31 % ID/g | Biodistribution: Blood (144 h p.i.): 0.01 % ID/g | Biodistribution: Bone (144 h p.i.): 0.23 % ID/g | Biodistribution: Brain (144 h p.i.): 0.02 % ID/g | Biodistribution: Fat (144 h p.i.): 0.07 % ID/g | Biodistribution: Heart (144 h p.i.): 0.14 % ID/g | Biodistribution: Intestine (144 h p.i.): 0.06 % ID/g | Biodistribution: LNCaP tumor (144 h p.i.): 71.25 % ID/g | Biodistribution: Lacrimal gland (144 h p.i.): 0.65 % ID/g | Biodistribution: Liver (144 h p.i.): 0.71 % ID/g | Biodistribution: Lungs (144 h p.i.): 0.13 % ID/g | Biodistribution: Muscle (144 h p.i.): 0.02 % ID/g | Biodistribution: Pancreas (144 h p.i.): 0.14 % ID/g | Biodistribution: Salivary gland (144 h p.i.): 0.21 % ID/g | Biodistribution: Seminal gland (144 h p.i.): 0.04 % ID/g | Biodistribution: Spleen (144 h p.i.): 0.65 % ID/g | Biodistribution: Stomach (144 h p.i.): 0.05 % ID/g | Biodistribution: Testes (144 h p.i.): 0.29 % ID/g | Biodistribution: Thyroid (144 h p.i.): 0.23 % ID/g | Biodistribution: Urine (144 h p.i.): 0.55 % ID/g | Biodistribution: kidney (144 h p.i.): 1.95 % ID/g | Biodistribution: Adrenal gland (240 h p.i.): 0.53 % ID/g | Biodistribution: Blood (240 h p.i.): 0.02 % ID/g | Biodistribution: Bone (240 h p.i.): 0.57 % ID/g | Biodistribution: Brain (240 h p.i.): 0.02 % ID/g | Biodistribution: Fat (240 h p.i.): 0.13 % ID/g | Biodistribution: Heart (240 h p.i.): 0.16 % ID/g | Biodistribution: Intestine (240 h p.i.): 0.06 % ID/g | Biodistribution: LNCaP tumor (240 h p.i.): 123.67 % ID/g | Biodistribution: Lacrimal gland (240 h p.i.): 0.19 % ID/g | Biodistribution: Liver (240 h p.i.): 1.49 % ID/g | Biodistribution: Lungs (240 h p.i.): 0.18 % ID/g | Biodistribution: Muscle (240 h p.i.): 0.08 % ID/g | Biodistribution: Pancreas (240 h p.i.): 0.06 % ID/g | Biodistribution: Salivary gland (240 h p.i.): 0.32 % ID/g | Biodistribution: Seminal gland (240 h p.i.): 0.06 % ID/g | Biodistribution: Spleen (240 h p.i.): 1.14 % ID/g | Biodistribution: Stomach (240 h p.i.): 0.08 % ID/g | Biodistribution: Testes (240 h p.i.): 0.27 % ID/g | Biodistribution: Thyroid (240 h p.i.): 0.23 % ID/g | Biodistribution: Urine (240 h p.i.): 0.41 % ID/g | Biodistribution: kidney (240 h p.i.): 2.24 % ID/g
SMILES: O=C([O-])CN1CCN(CC(=O)[O-])CCN(CC(=O)NCCCCC(NC(=O)CNC(=O)CCCc2ccc([N+](=O)[O-])cc2)C(=O)NCC(=O)NCC2CCC(C(=O)NC(Cc3c4ccccc4cc4ccccc34)C(=O)NCCCCC(NC(=O)NC(CCCC(=O)O)C(=O)O)C(=O)O)CC2)CCN(CC(=O)[O-])CC1.[225Ac+3] (stereo not drawn) [^225Ac-CCZ02017] ({Butanoyl(4-(4-NO2Ph))}-G[ξK](DOTA)G[X1][ξAla(9-anthryl)]-{ξLys(Nα-CO-ξAad)})
